# In patent EP0350948B1, “Porphyrin derivatives” (TOYOHAKKA KOGYO KABUSHIKI KAISHA, priority 1988, dated 1990):
# Test system: nitrosoamine-induced pancreatic cancer
# Assay: laser irradiation to the extirpated organ (excited fluorescent spectrum, N2-PLS measurement), tumor to tissue ratio
# Type: in vivo, Golden hamsters
# Conditions: i.v. 25 mg/kg bodyweight, organs extirpated at 24 hours after administration
# Procedure: Golden hamsters (males, 5 per group, bodyweight approximately 150 g) were implanted subcutaneously tumor cells of the nitrosoamine-induced pancreatic cancer. After 14 to 21 days following implantation, animals were intravenously (i.v.) administered the test substance EG-Ga-DP-diGly (10 mg/ml) which had been diluted with phosphate buffer at 25 mg/kg bodyweight. At 24 hours after administration, the organs including the tumor were extirpated, irradiated with N2-pulsed laser (N2, 337 nm, 2 ns, 400 - 1000 nm), and measured of excited fluorescent spectrum. The wavelengths of 600 - 900 nm were studied using the peak wavelength of NADH at 470 nm as a reference. (N2-PLS measurement). […] (Tumor to tissue ratio).
# Excited fluorescent spectra of the organs extirpated at 24 hours after administration were measured, and the peak wavelength at 600 - 900 nm was calculated by setting the peak wavelength at 470 nm as the reference 1. As fluorescence in Mn, Fe and Cu complexes is not sufficiently intense as to enable N2-PLS measurement, the extraction method was applied to these compounds. At 24 hours following administration, the organs were extracted with an organic solvent (such as chloroform-methanol) via acetone powder, and the obtained extract was measured of UV or HPLC to calculate the tumor to tissue ratio.
tumor/tissue cancer/ serum,SMILES,tumor/tissue cancer/ kidney,tumor/tissue cancer/ liver,tumor/tissue cancer/ lung
0.89,"CCCCCCCOC(C)C1=C(C)C2=Cc3c(C(C)OCCCCCCC)c(C)c4[n]3[Ga][n]3c(c(C)c(CCC(=O)NC(CC(=O)O)C(=O)O)c3=CC3=NC(=C4)C(C)=C3CCC(=O)NC(CC(=O)O)C(=O)O)=CC1=N2 (centres unmarked) [(11) C7-Ga-DP-diAsp, 2,4-bis(1-heptyloxyethyl)-Ga-deuteroporphynyl diaspartic acid]",4.88,2.96,2.92
–,"CC1=C(CCC(=O)NC(CC(=O)O)C(=O)O)C2=NC1=Cc1c(C)c(C(C)OCCO)c3[n]1[Ga][n]1c(c(C)c(CCC(=O)NC(CC(=O)O)C(=O)O)c1=C2)=CC1=NC(=C3)C(C)=C1C(C)OCCO (centres unmarked) [(3) EG-Ga-DP-diAsp, 2,4-bis[1-(2-hydroxyethyloxy)ethyl]-Ga-deuteroporphynyl diaspartic acid]",3.45,3.00,2.87

# Test system: nitrosoamine-induced pancreatic cancer
# Assay: in vivo hemorrhagic necrosis effect
# Design: species or system hamsters; key to Hemorrhagic necrosis effect: four scales of G4, G3, G2 and G1; four scales of G4, G3, G2 and G1; four scales of G4, G3, G2 and G1; four scales of G4, G3, G2 and G1
# Conditions: 24 hours after administration
# Procedure: Cancer bearing hamsters of Experiment 1 were i.v. administered the test substance C6-Ga-DP-diAsp (10) (10 mg/ml) which had been diluted with phosphate buffer at 25 mg/kg bodyweight and 12.5 mg/kg bodyweight respectively. The animals were exsanguinated and autopsied at 24 hours after administration, and observed.
# The evaluation was based on the four scales of G4, G3, G2 and G1.
row,SMILES,photograph of cancer masses (Fig. 3)
1,"CC(C)=CCC/C(C)=C/COC(C)C1=C(C)C2=Cc3c(C(C)OC/C=C(\C)CCC=C(C)C)c(C)c4[n]3[Mn][n]3c(c(C)c(CCC(=O)NC(CC(=O)O)C(=O)O)c3=CC3=NC(=C4)C(C)=C3CCC(=O)NC(CC(=O)O)C(=O)O)=CC1=N2 (centres unmarked) [(42) C10(Gera)-Mn-DP-diAsp, 2,4-bis(1-geranyloxyethyl)-Mn-deuteroporphynyl diaspartic acid]",hemorrhagic necrosis
2,"CCCCCCCCOC(C)C1=C(C)C2=Cc3c(C(C)OCCCCCCCC)c(C)c4[n]3[Fe][n]3c(c(C)c(CCC(=O)NC(CC(=O)O)C(=O)O)c3=CC3=NC(=C4)C(C)=C3CCC(=O)NC(CC(=O)O)C(=O)O)=CC1=N2 (centres unmarked) [(62) C8-Fe-DP-diAsp, 2,4-bis(1-octyloxyethyl)-Fe-deuteroporphynyl diaspartic acid]",hemorrhagic necrosis

# Same assay, conditions: 24 hours after administration; Cn-Ga-DP-diAsp, n = odd numbers
row,SMILES,photograph of a cancer mass (Fig. 1)
1,"CCCCCCCOC(C)C1=C(C)C2=Cc3c(C(C)OCCCCCCC)c(C)c4[n]3[Ga][n]3c(c(C)c(CCC(=O)NC(CC(=O)O)C(=O)O)c3=CC3=NC(=C4)C(C)=C3CCC(=O)NC(CC(=O)O)C(=O)O)=CC1=N2 (centres unmarked) [(11) C7-Ga-DP-diAsp, 2,4-bis(1-heptyloxyethyl)-Ga-deuteroporphynyl diaspartic acid]",hemorrhagic necrosis

# Same assay, conditions: intensity of hemorrhagic necrosis at 24 hours following i.v. administration, and pathological study
row,SMILES,Hemorrhagic necrosis effect
1,"CC(C)=CCC/C(C)=C/COC(C)C1=C(C)C2=Cc3c(C(C)OC/C=C(\C)CCC=C(C)C)c(C)c4[n]3[Mn][n]3c(c(C)c(CCC(=O)NC(CC(=O)O)C(=O)O)c3=CC3=NC(=C4)C(C)=C3CCC(=O)NC(CC(=O)O)C(=O)O)=CC1=N2 (centres unmarked) [(42) C10(Gera)-Mn-DP-diAsp, 2,4-bis(1-geranyloxyethyl)-Mn-deuteroporphynyl diaspartic acid]",G3
2,"CCCCCCCCCCOC(C)C1=C(C)C2=Cc3c(C(C)OCCCCCCCCCC)c(C)c4[n]3[Co][n]3c(c(C)c(CCC(=O)NC(CC(=O)O)C(=O)O)c3=CC3=NC(=C4)C(C)=C3CCC(=O)NC(CC(=O)O)C(=O)O)=CC1=N2 (centres unmarked) [(66) C10-Co-DP-diAsp, 2,4-bis(1-decyloxyethyl)-Co-deuteroporphynyl diaspartic acid]",G1
3,"CC1=C(CCC(=O)NC(CC(=O)O)C(=O)O)c2cc3[nH]c(cc4nc(cc5[nH]c(cc1n2)c(C(C)OCC1CCCO1)c5C)C(C(C)OCC1CCCO1)=C4C)c(C)c3CCC(=O)NC(CC(=O)O)C(=O)O.[Mn] (centres unmarked) [(55) H4Fran-Mn-DP-diAsp, 2,4-bis(1-tetrahydrofurfuryloxyethyl)-Mn-deuteroporphynyl diaspartic acid]",G2
4,"CCCCCCCCCCCCOC(C)C1=C(C)C2=Cc3c(C(C)OCCCCCCCCCCCC)c(C)c4[n]3[Fe][n]3c(c(C)c(CCC(=O)NC(CC(=O)O)C(=O)O)c3=CC3=NC(=C4)C(C)=C3CCC(=O)NC(CC(=O)O)C(=O)O)=CC1=N2 (centres unmarked) [(64) C12-Fe-DP-diAsp, 2,4-bis(1-dodecyloxyethyl)-Fe-deuteroporphynyl diaspartic acid]",G3
5,"CCCCCCCOC(C)C1=C(C)C2=Cc3c(C(C)OCCCCCCC)c(C)c4[n]3[Ga][n]3c(c(C)c(CCC(=O)NC(CC(=O)O)C(=O)O)c3=CC3=NC(=C4)C(C)=C3CCC(=O)NC(CC(=O)O)C(=O)O)=CC1=N2 (centres unmarked) [(11) C7-Ga-DP-diAsp, 2,4-bis(1-heptyloxyethyl)-Ga-deuteroporphynyl diaspartic acid]",G4
6,"CCCCCCCCOC(C)C1=C(C)C2=Cc3c(C(C)OCCCCCCCC)c(C)c4[n]3[Mn][n]3c(c(C)c(CCC(=O)NC(CC(=O)O)C(=O)O)c3=CC3=NC(=C4)C(C)=C3CCC(=O)NC(CC(=O)O)C(=O)O)=CC1=N2 (centres unmarked) [(36) C8-Mn-DP-diAsp, 2,4-bis(1-octyloxyethyl)-Mn-deuteroporphynyl diaspartic acid]",G3
7,"CC1=C(CCC(=O)NC(CC(=O)O)C(=O)O)c2cc3[nH]c(cc4nc(cc5[nH]c(cc1n2)c(C(C)OCCC(C)CCCC(C)C)c5C)C(C(C)OCCC(C)CCCC(C)C)=C4C)c(C)c3CCC(=O)NC(CC(=O)O)C(=O)O.[Mn] (centres unmarked) [(44) C10(H2Citro)-Mn-DP-diAsp, 2,4-bis(1-dihydrocitronellyloxyethyl)-Mn-deuteroporphynyl diaspartic acid]",G4
8,"CCCCCCCCCCCCOC(C)C1=C(C)C2=Cc3c(C(C)OCCCCCCCCCCCC)c(C)c4[n]3[Cu][n]3c(c(C)c(CCC(=O)NC(CC(=O)O)C(=O)O)c3=CC3=NC(=C4)C(C)=C3CCC(=O)NC(CC(=O)O)C(=O)O)=CC1=N2 (centres unmarked) [(70) C12-Cu-DP-diAsp, 2,4-bis(1-dodecyloxyethyl)-Cu-deuteroporphynyl diaspartic acid]",G1
9,"CCCCCCCCCCCCOC(C)C1=C(C)c2cc3[nH]c(cc4nc(cc5[nH]c(cc1n2)c(C)c5C(C)OCCCCCCCCCCCC)C(C)=C4CCC(=O)NC(CC(=O)O)C(=O)O)c(CCC(=O)NC(CC(=O)O)C(=O)O)c3C.[Co] (centres unmarked) [(67) C12-Co-DP-diAsp, 2,4-bis(1-dodecyloxyethyl)-Co-deuteroporphynyl diaspartic acid]",G1
10,"CCCCCCCCOC(C)C1=C(C)C2=Cc3c(C(C)OCCCCCCCC)c(C)c4[n]3[Fe][n]3c(c(C)c(CCC(=O)NC(CC(=O)O)C(=O)O)c3=CC3=NC(=C4)C(C)=C3CCC(=O)NC(CC(=O)O)C(=O)O)=CC1=N2 (centres unmarked) [(62) C8-Fe-DP-diAsp, 2,4-bis(1-octyloxyethyl)-Fe-deuteroporphynyl diaspartic acid]",G3
11,"CCCCCCCCCCOC(C)C1=C(C)C2=Cc3c(C(C)OCCCCCCCCCC)c(C)c4[n]3[Mn][n]3c(c(C)c(CCC(=O)NCC(=O)NC(CC(=O)O)C(=O)O)c3=CC3=NC(=C4)C(C)=C3CCC(=O)NCC(=O)NC(CC(=O)O)C(=O)O)=CC1=N2 (centres unmarked) [(39) C10-Mn-DP-diGly-diAsp, 2,4-bis(1-decyloxyethyl)-Mn-deuteroporphynyl diglycyldiaspartic acid]",G2
12,"CC(C)=CCCC(C)CCOC(C)C1=C(C)C2=Cc3c(C(C)OCCC(C)CCC=C(C)C)c(C)c4[n]3[Mn][n]3c(c(C)c(CCC(=O)NC(CC(=O)O)C(=O)O)c3=CC3=NC(=C4)C(C)=C3CCC(=O)NC(CC(=O)O)C(=O)O)=CC1=N2 (centres unmarked) [(43) C10(Citro)-Mn-DP-diAsp, 2,4-bis(1-citronellyloxyethyl)-Mn-deuteroporphynyl diaspartic acid]",G3
13,"CCCCCCCCCCCCOC(C)C1=C(C)C2=Cc3c(C(C)OCCCCCCCCCCCC)c(C)c4[n]3[Zn][n]3c(c(C)c(CCC(=O)NC(CC(=O)O)C(=O)O)c3=CC3=NC(=C4)C(C)=C3CCC(=O)NC(CC(=O)O)C(=O)O)=CC1=N2 (centres unmarked) [(73) C12-Zn-DP-diAsp, 2,4-bis(1-dodecyloxyethyl)-Zn-deuteroporphynyl diaspartic acid]",G2
14,"C=CC1=C(C)C2=Cc3c(C(C)OCCCCCCCCCCCC)c(C)c4[n]3[Mn][n]3c(c(C)c(CCC(=O)NC(CC(=O)O)C(=O)O)c3=CC3=NC(=C4)C(C)=C3CCC(=O)NC(CC(=O)O)C(=O)O)=CC1=N2 (centres unmarked) [(49) C12(mono)-Mn-DP-diAsp, 2-(1-dodecyloxyethyl)-4-ethenyl-Mn-deuteroporphynyl diaspartic acid]",G2
15,"CCCCCCCCCCOC(C)C1=C(C)C2=Cc3c(C(C)OCCCCCCCCCC)c(C)c4[n]3[Mn][n]3c(c(C)c(CCC(=O)NC(CC(C)C)C(=O)NC(CC(=O)O)C(=O)O)c3=CC3=NC(=C4)C(C)=C3CCC(=O)NC(CC(C)C)C(=O)NC(CC(=O)O)C(=O)O)=CC1=N2 (centres unmarked) [(40) C10-Mn-DP-diLeu-diAsp, 2,4-bis(1-decyloxyethyl)-Mn-deuteroporphynyl dileucyldiaspartic acid]",G2
16,"CCCCCCCCCCCCCCOC(C)C1=C(C)C2=Cc3c(C(C)OCCCCCCCCCCCCCC)c(C)c4[n]3[Mn][n]3c(c(C)c(CCC(=O)NC(CC(=O)O)C(=O)O)c3=CC3=NC(=C4)C(C)=C3CCC(=O)NC(CC(=O)O)C(=O)O)=CC1=N2 (centres unmarked) [(51) C14-Mn-DP-diAsp, 2,4-bis(1-tetradecyloxyethyl)-Mn-deuteroporphynyl diaspartic acid]",G3
17,"CCCCCCCCCCOC(C)C1=C(C)C2=Cc3c(C(C)OCCCCCCCCCC)c(C)c4[n]3[Mn][n]3c(c(C)c(CCC(=O)NC(Cc5ccccc5)C(=O)NC(CC(=O)O)C(=O)O)c3=CC3=NC(=C4)C(C)=C3CCC(=O)NC(Cc3ccccc3)C(=O)NC(CC(=O)O)C(=O)O)=CC1=N2 (centres unmarked) [(41) C10-Mn-DP-diPhe-diAsp, 2,4-bis(1-decyloxyethyl)-Mn-deuteroporphynyl diphenylalanyldiaspartic acid]",G2
18,"CC1=C(CCC(=O)NC(CC(=O)O)C(=O)O)C2=NC1=Cc1c(C)c(C(C)OCc3cccnc3)c3[n]1[Mn][n]1c(c(C)c(CCC(=O)NC(CC(=O)O)C(=O)O)c1=C2)=CC1=NC(=C3)C(C)=C1C(C)OCc1cccnc1 (centres unmarked) [(57) Nct-Mn-DP-diAsp, 2,4-bis(1-nicotynyloxyethyl)-Mn-deuteroporphynyl diaspartic acid]",G2
19,"C=CC1=C(C)C2=Cc3c(C(C)OCCC(C)CCCC(C)C)c(C)c4[n]3[Mn][n]3c(c(C)c(CCC(=O)NC(CC(=O)O)C(=O)O)c3=CC3=NC(=C4)C(C)=C3CCC(=O)NC(CC(=O)O)C(=O)O)=CC1=N2 (centres unmarked) [(45) C10(H2Citro,mono)-Mn-DP-diAsp, 2-(1-dihydrocitronellyloxyethyl)-4-ethenyl-Mn-deuteroporphynyl diaspartic acid]",G2
